What was measured:
[1] = compound: CC1=C(C(=NN1)C)CC2=C(C3=C(S2)N(C(=O)N(C3=O)C)CC(C)C)C(=O)N4C[C@@H](CO4)O; test: relative viability (nuclei count vs DMSO), 5 days (fraction); higher = more cells survive
In short: (§1)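 Viability is treated-well nuclei as a fraction of vehicle-well nuclei, reported as the median across plates. Before counting, lung cancer cell lines were kept overnight at 37 °C in 1536-well plates, pinned with five √10-spaced library-drug doses on vehicle-anchored plates, and left 5 days without medium change, then fixed, permeabilised and Hoechst-stained in one step, imaged at 4× and counted by MetaXpress. A plate passed only if control CV was below 25% and at least one doubling occurred.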

IDH-C35 = compound: Cc1ccccc1C(C(=O)NC1CCCCC1)N(C(=O)Cn1ccnc1C)c1cccc(F)c1 [IDH-C35]; test: as above
In short: as §1

| Cell Line | relative viability ([1]; 0.0025 µM) | relative viability ([1]; 0.007906 µM) | relative viability ([1]; 0.025 µM) | relative viability ([1]; 0.07906 µM) | relative viability ([1]; 0.25 µM) | relative viability (IDH-C35; 0.08 µM) | relative viability (IDH-C35; 0.253 µM) | relative viability (IDH-C35; 0.8 µM) | relative viability (IDH-C35; 2.53 µM) | relative viability (IDH-C35; 8 µM) |
| --- | --- | --- | --- | --- | --- | --- | --- | --- | --- | --- |
| NCI-H2228 | 0.925 | 1.24 | 1.13 | 0.907 | 1.08 | 0.87 | 0.935 | 0.968 | 1.01 | 0.935 |
| NCI-H2342 | 1.06 | 0.935 | 1.03 | 0.975 | 0.886 | 1.02 | 0.957 | 0.901 | 0.908 | 0.891 |
| NCI-H2347 | 1.11 | 1.2 | 0.949 | 0.983 | 1.04 | 1.04 | 1.06 | 0.937 | 1.02 | 0.997 |
| NCI-H2405 | 1.1 | 1.04 | 0.653 | 0.921 | 0.962 | 1.05 | 1 | 0.971 | 0.996 | 1.02 |
| NCI-H3122 | 1.01 | 0.971 | 0.99 | 1.01 | 1.03 | 0.999 | 1.02 | 1.01 | 0.985 | 0.973 |
| PC-3 [JPC-3] | 1.1 | 1.05 | 1.01 | 1.04 | 1.07 | 1.04 | 1 | 1.04 | 1.08 | 1.04 |
